Experimental data: patent publication US12544395B2, “Combination compositions comprising a beta-lactamase inhibitor and uses thereof” (priority 2018, dated 2026)
pIC50, pKi: −log10 of the molar value. ≈ marks a conversion by molar mass, not a printed value. Where “and” joins values, the source holds several entries; their conditions need not be identical. Equal values may be shown once. Read-outs that look alike come from different tables or passages of the source.

How the values were obtained:
[1] = tested on: KPC-expressing Enterobacteriaceae (n = 77); assay: organism not typed; assay type: cell-based
[2] = tested on: ESBL-expressing Enterobacteriaceae (n = 33); assay: Broth microdilution MIC, ceftibuten/Compound 2 vs IV comparators; assay type: cell-based
[3] = tested on: E. coli (UNT-204-1, TEM-1 plus CTX-M-15 producing); assay type: in vivo, C3H/HeJ mice; conditions: for Log10 Change in CFU/Sample vs. untreated controls, Day 7, Bladder / Log10 Change in CFU/Sample vs. untreated controls, Day 7, Kidneys / Log10 Change in CFU/Sample vs. untreated controls, Day 7, Urine: SC, BID, 3 days
[4] = Metabolic stability in liver S9; assay type: in vitro ADME, CD-1 mouse; conditions: CD-1, liver S9; Mouse; test conc. 3 μM
[5] = Metabolic stability in plasma; assay type: in vitro ADME; conditions: cynomolgus, Monkey, test conc. 3 μM
[6] = target: T1, KPC-2 (Klebsiella pneumoniae, UniProt Q9F663); assay: Beta-lactamase enzyme inhibition (IC50); assay type: biochemical
T1 construct: expressed as native untagged proteins; made in house; host or cells: E. coli BL21(DE3)

[7] = Metabolic stability in intestinal S9; assay type: in vitro ADME, cynomolgus monkey; conditions: cynomolgus, intestinal S9; Monkey; test conc. 3 μM
[8] = Single ascending dose pharmacokinetics, Solutol HS-15:Water (20:80); assay type: in vivo, Sprague-Dawley rats; conditions: male, Sprague-Dawley, rat, plasma, iv, 10 mg/kg
Procedure: (§1) This study included dose concentrations ranging from 2-120 mg/mL.

[9] = Metabolic stability in liver S9; assay type: in vitro ADME, cynomolgus monkey; conditions: cynomolgus, liver S9; Monkey; test conc. 3 μM
[10] = target: T2, OXA-1 (Escherichia coli, UniProt P13661); assay: Beta-lactamase enzyme inhibition (IC50); assay type: biochemical
T2 construct: expressed as native untagged proteins; made in house; host or cells: E. coli BL21(DE3)

[11] = Metabolic stability in liver S9; assay type: in vitro ADME; conditions: liver S9; Human; test conc. 3 μM
[12] = target: T1, KPC-2; assay type: biochemical
Procedure: (§2) Assays (200 μl final volume) were performed in PBS in triplicate using 96-well microtiter plates. Cephalothin was used as the substrate for p99 AmpC and CTX-M-15 (50 μM for p99 AmpC; 75 μM for CTX-M-15) and reactions were initiated by addition of enzyme (0.2 nM p99 AmpC; 3 nM CTX-M-15). The decrease in the absorbance at λ260 nm was recorded continuously on a BioTek Powerwave XS2 microplate reader. […] SHV-5 reactions were initiated with 40 nM enzyme, using cefotaxime (100 μM) as the substrate. […] For KPC-2, imipenem (75 μM) was used as the substrate, and reactions initiated with 3 nM enzyme. Reaction progress was monitored by measuring the reduction in absorbance at λ300 nm in continuous fashion. […] Time courses for reaction progress were fit to the following equation, using Prism 7.04 (GraphPad Software, LaJolla, USA) to obtain kobs:
(§3) Off-rates for Compound 2 with the various beta-lactamases were determined by jump dilution experiments, performed in triplicate. Enzyme and inhibitor were incubated at room temperature for 10 minutes. Enzyme:inhibitor complexes were then diluted 800-fold into reaction buffer (50 mM Hepes, pH 7.0, 0.1 mg/ml BSA), and 20 μL of the diluted reaction immediately added to 180 μl of 110 μM nitrocefin in a 96-well microtiter plate, and the absorbance at λ 486 nm measured continuously on a BioTek Powerwave XS2 microplate reader. The resulting progress curves were fit to a single exponential, from which koff was derived. Half-life was determined using:
(§4) To determine Ki, plots of the inhibitor concentration versus inverse the initial velocity were fit to a linear equation, and the observed Ki corrected for substrate concentration and affinity by: […]

[13] = target: T3, SHV-5 (Klebsiella pneumoniae, UniProt P0A3M1); assay type: biochemical
T3 construct: expressed as native untagged proteins; made in house; host or cells: E. coli BL21(DE3)
Procedure: as §2, §3, §4

[14] = target: T4, CTX-M-15 (Escherichia coli, UniProt Q9EXV5); assay type: biochemical
T4 construct: expressed as native untagged proteins; made in house; host or cells: E. coli BL21(DE3)
Procedure: as §2, §3, §4

[15] = Single ascending dose pharmacokinetics, Solutol HS-15:Water (20:80); assay type: in vivo, Cynomolgus monkeys; conditions: cynomolgus monkey, plasma, iv, 1 mg/kg
Procedure: as §1

[16] = Single dose plasma pharmacokinetics (fasted and non-fasted); assay type: in vivo, Sprague-Dawley rats; conditions: Sprague-Dawley, rat, iv, 5 mg/kg
[17] = target: T4, CTX-M-15; assay: Beta-lactamase enzyme inhibition (IC50); assay type: biochemical
[18] = tested on: 21 beta-lactamase-producing Enterobacteriaceae strains; assay: Neutropenic mouse thigh infection model, dose ranging; assay type: in vivo, mice
[19] = Metabolic stability in plasma; assay type: in vitro ADME, beagle dog; conditions: beagle, plasma; Dog; test conc. 3 μM
[20] = target: T5, p99 AmpC (Enterobacter cloacae, UniProt P05364); assay type: biochemical
T5 construct: expressed as native untagged proteins; made in house; host or cells: E. coli BL21(DE3)

Nc1nc(/C(=C/CC(=O)O)C(=O)N[C@@H]2C(=O)N3C(C(=O)O)=CCS[C@H]23)cs1 [Ceftibuten, ceftibuten, reference compound]
Number of strains at MIC value 0.5 mg/L ([1]; KPC-expressing (n = 77)): 2
Number of strains at MIC value 1 mg/L ([1]; KPC-expressing (n = 77)): 2
Number of strains at MIC value 2 mg/L ([1]; KPC-expressing (n = 77)): 4
Number of strains at MIC value 4 mg/L ([1]; KPC-expressing (n = 77)): 7
Number of strains at MIC value 8 mg/L ([1]; KPC-expressing (n = 77)): 13
Number of strains at MIC value 16 mg/L ([1]; KPC-expressing (n = 77)): 24
Number of strains at MIC value […] ([1]; KPC-expressing (n = 77)): 0
Number of strains at MIC value ≤0.06 mg/L ([1]; KPC-expressing (n = 77)): 0
Number of strains at MIC value ≥32 mg/L ([1]; KPC-expressing (n = 77)): 25
MIC90 ([1]; iv): ≥ 32 µg/mL
Number of strains at MIC value 0.5 mg/L ([2]; ESBL-expressing (n = 33)): 2
Number of strains at MIC value 1 mg/L ([2]; ESBL-expressing (n = 33)): 4
Number of strains at MIC value 2 mg/L ([2]; ESBL-expressing (n = 33)): 2
Number of strains at MIC value 4 mg/L ([2]; ESBL-expressing (n = 33)): 8
Number of strains at MIC value 8 mg/L ([2]; ESBL-expressing (n = 33)): 5
Number of strains at MIC value 16 mg/L ([2]; ESBL-expressing (n = 33)): 1
Number of strains at MIC value […] ([2]; ESBL-expressing (n = 33)): 2 and 3
Number of strains at MIC value ≤0.06 mg/L ([2]; ESBL-expressing (n = 33)): 0
Number of strains at MIC value ≥32 mg/L ([2]; ESBL-expressing (n = 33)): 6
MIC50 ([2]; iv): 4 µg/mL (≈ 9.75 µM)
MIC90 ([2]; iv): ≥ 32 µg/mL
Log10 Change in CFU/Sample vs. untreated controls, Day 7, Bladder ([3]; 3 mg/kg): −0.03 Log10 CFU/Sample
Log10 Change in CFU/Sample vs. untreated controls, Day 7, Kidneys ([3]; 3 mg/kg): −0.44 Log10 CFU/Sample
Log10 Change in CFU/Sample vs. untreated controls, Day 7, Urine ([3]; 3 mg/kg): −1.24 Log10 CFU/Sample
Log10 Change in CFU/Sample vs. untreated controls, Day 7, Bladder ([3]; 10 mg/kg): −1.51 Log10 CFU/Sample
Log10 Change in CFU/Sample vs. untreated controls, Day 7, Kidneys ([3]; 10 mg/kg): −1.55 Log10 CFU/Sample
Log10 Change in CFU/Sample vs. untreated controls, Day 7, Urine ([3]; 10 mg/kg): −0.59 Log10 CFU/Sample
Log10 Change in CFU/Sample vs. untreated controls, Day 7, Bladder ([3]; 30 mg/kg): −2.08 Log10 CFU/Sample
Log10 Change in CFU/Sample vs. untreated controls, Day 7, Kidneys ([3]; 30 mg/kg): −1.57 Log10 CFU/Sample
Log10 Change in CFU/Sample vs. untreated controls, Day 7, Urine ([3]; 30 mg/kg): −2.28 Log10 CFU/Sample
reduction of bacterial load in the kidneys (average) ([3]; 100 mg/kg, SC twice daily for 3 days): 2.11 log10 CFU
Log10 Change in CFU/Sample vs. untreated controls, Day 7, Bladder ([3]; 100 mg/kg): −2.26 Log10 CFU/Sample
Log10 Change in CFU/Sample vs. untreated controls, Day 7, Kidneys ([3]; 100 mg/kg): −2.11 Log10 CFU/Sample
Log10 Change in CFU/Sample vs. untreated controls, Day 7, Urine ([3]; 100 mg/kg): −2.54 Log10 CFU/Sample
Log10 Change in CFU/Sample vs. untreated controls, Day 7, Bladder ([3]; 300 mg/kg): −1.83 Log10 CFU/Sample
Log10 Change in CFU/Sample vs. untreated controls, Day 7, Kidneys ([3]; 300 mg/kg): −2.14 Log10 CFU/Sample
Log10 Change in CFU/Sample vs. untreated controls, Day 7, Urine ([3]; 300 mg/kg): −3.37 Log10 CFU/Sample

CCC(=O)N[C@H]1Cc2cccc(C(=O)O)c2OB1O [Compound 2, (R)-2-hydroxy-3-propionamido-3,4-dihydro-2H-benzo[e][1,2]oxaborinine-8-carboxylic acid]
half-life at 3 μM [4]: > 2 h
half-life at 3 μM [5]: > 2 h
pIC50 [6]: 7.10
half-life at 3 μM [7]: > 2 h
AUC(0-inf) [8]: 6700 ng·h/mL
Cmax [8]: 23700 ng/mL
half-life at 3 μM [9]: > 2 h
pIC50 [10]: 7.18
half-life at 3 μM [11]: > 2 h
pKi [12]: 6.96
k−2 [12]: 2.5 ± 0.1 10^−4 s^−1
t1/2 [12]: 0.767 ± 0.0333 h
pKi [13]: 7.39
k−2 [13]: 12.7 ± 0.07 10^−4 s^−1
t1/2 [13]: 6.5 ± 0.04 min
pKi [14]: 8.00
k−2 [14]: 4.5 ± 0.1 10^−4 s^−1
t1/2 [14]: 0.433 ± 0.01 h
AUC(0-inf) [15]: 10000 ng·h/mL
Cmax [15]: 26000 ng/mL
AUC(0-inf) [16]: 3710 ng·h/mL
Cmax [16]: 7100 ng/mL
pIC50 [17]: 7.74
rescue of ceftibuten activity ([18]; ceftibuten 300 mg q8h human-simulated regimen with Compound 2 q8h): rescued ceftibuten activity in all 21 beta-lactamase-expressing strains
Compound 2 median exposure at which net bacterial stasis was achieved ([18]; ceftibuten 300 mg q8h human-simulated regimen, interquartile range 3.06-18.56): 8.98 mg·h/L
half-life at 3 μM [19]: > 2 h
k−2 [20]: 24 ± 0.5 10^−4 s^−1
t1/2 [20]: 5.0 ± 0.1 min
